Laboratory results taken from ChEMBL document CHEMBL5113494, “Novel difluoromethyl-containing 1-((4-methoxy-3-(piperazin-1-yl)phenyl)sulfonyl)-1H-indole scaffold as potent 5-HT6R antagonists: Design, synthesis, biological evaluation, and early in vivo cognition-enhancing studies” (Bioorg Med Chem, 2022).

Tests used:
[1] = Sprague-Dawley, rat, in vivo, iv, 2 mg/kg, 24 h
[2] = in vivo; settings: Sprague-Dawley, rat, iv, 2 mg/kg
[3] = in vivo; settings: Sprague-Dawley, rat, po, 5 mg/kg
[4] = in vivo; settings: Sprague-Dawley, rat, po, 5 mg/kg; remark: listed apart in the source
[5] = in vivo; settings: Sprague-Dawley, rat, po, 5 mg/kg; remark: listed apart in the source
[6] = in vivo; settings: Sprague-Dawley, rat, po, 5 mg/kg; remark: listed apart in the source
[7] = physchem; settings: octanol/water
[8] = physchem

SMILES | AUCt [1] [ng·h/mL] | Cmax at 24 h [2] [ng/mL] | Cmax at 24 h [3] [ng/mL] | bioavailability at 24 h [4] [%] | half-life at 24 h [5] [h] | AUC(0-t) at 24 h [6] [ng·h/mL] | logP [7] | pKa [8]
COc1ccc(S(=O)(=O)n2cc(C(F)F)c3ccc(F)cc32)cc1N1CCNCC1 | 290 | 77 | 24 | 14.4 | 3.4 | 102 | 3.39 | 8.62
COc1ccc(S(=O)(=O)n2cc(C(F)F)c3cc(Cl)ccc32)cc1N1CCNCC1 |  |  |  |  |  |  | 3.85 | 8.66
COc1ccc(S(=O)(=O)n2cc(C)c3ccc(F)cc32)cc1N1CCNCC1 |  |  |  |  |  |  | 3.3 | 8.78
COc1ccc(S(=O)(=O)n2cc(C(F)F)c3cc(F)ccc32)cc1N1CCNCC1 |  |  |  |  |  |  | 3.31 | 8.78
COc1ccc(S(=O)(=O)n2cc(C)c3cc(F)ccc32)cc1N1CCNCC1 |  |  |  |  |  |  | 3.22 | 
COc1ccc(S(=O)(=O)n2ccc3ccc(Br)cc32)cc1N1CCNCC1 | 153 | 133 | 10 | 9.35 | 2.1 | 32 | 3.73 | 8.68
